Earlier results on 22 molecules are cited in US20250241296A1, “HIGH-LOAD AGRICULTURAL FORMULATIONS AND METHODS OF MAKING SAME” (priority 2022, published 2025).

For data set [1] the following is noted: footnote a: values from the Chemistry Dashboard of the US Environmental Protection Agency.
For data set [2] the following is noted: footnote a: values from the Chemistry Dashboard of the US Environmental Protection Agency. This is another data set of the same source.

In the case of `Fc1ccc([C@]2(Cn3cncn3)O[C@H]2c2ccccc2Cl)cc1` (racemic) [Epoxiconazole], the Density in data set [1] was 1.42^a g/mL. For the molecule `CO/C=C(/C(=O)OC)c1ccccc1Oc1cc(Oc2ccccc2C#N)ncn1` [Azoxystrobin], the Density in data set [1] is 1.34^a g/mL. For the same molecule, the “Solubility in Water” value in data set [2] is recorded as 6.01^a mg/L. For the molecule `COC(=O)Nc1nc2ccccc2[nH]1` [Carbendazim], the Density in data set [1] was 1.39^a g/mL. For `CNC(=O)c1cc(Cl)cc(C)c1NC(=O)c1cc(Br)nn1-c1ncccc1Cl` [Chlorantraniliprole], the Density in data set [1] is listed as 1.65^a g/mL.

With `CNC(=O)c1cc(C#N)cc(C)c1NC(=O)c1cc(Br)nn1-c1ncccc1Cl` [Cyantraniliprole], the Density in data set [1] is 1.65^a g/mL.

Consider `CC(C1CC1)C(O)(Cn1cncn1)c1ccc(Cl)cc1` (stereo not drawn) [Cyproconazole], for which, in data set [1], the Density is listed as 1.31^a g/mL.

On to `O=[N+]([O-])c1cc(C(F)(F)F)c(Cl)c([N+](=O)[O-])c1Nc1ncc(C(F)(F)F)cc1Cl` [Fluazinam], for which the Density in data set [1] is reported as 1.80^a g/mL. With `Cc1cc(C(F)(C(F)(F)F)C(F)(F)F)ccc1NC(=O)c1cccc(I)c1C(=O)NC(C)(C)CS(C)(=O)=O` [Flubendiamide], in data set [1], the Density is 1.78^a g/mL. Turning to `N#Cc1c[nH]cc1-c1cccc2c1OC(F)(F)O2` [Fludioxinil], the Density in data set [1] is listed as 1.54^a g/mL. As for `N#Cc1ccccc1NC(=O)c1snc(Cl)c1Cl` [Isotianil], the Density in data set [1] is 1.56^a g/mL.

As for `COCC(=O)N(c1c(C)cccc1C)[C@H](C)C(=O)OC` [Metalaxyl-M], in data set [1], the Density is given as 1.09^a g/mL. On to `CNC(=O)/C(=N/OC)c1ccccc1Oc1ccccc1` [Metominostrobin], for which the Density in data set [1] is reported as 1.13^a g/mL. Consider `Cc1nn(C)c(F)c1C(=O)Nc1ccccc1C(C)CC(C)C` (stereo not drawn) [Penflufen], for which the Density in data set [1] is listed as 1.18^a g/mL. As to `CO/C=C(/C(=O)OC)c1ccccc1COc1cccc(C(F)(F)F)n1` [Picoxystrobin], the Density in data set [1] was 1.28^a g/mL. Besides, the “Solubility in Water” value in data set [2] was 8.30^a mg/L. Take `CC12CC1(C)C(=O)N(c1cc(Cl)cc(Cl)c1)C2=O` (stereo not drawn) [Procymidone]: in data set [1], the Density was 1.43^a g/mL. For the molecule `CCCC1COC(Cn2cncn2)(c2ccc(Cl)cc2Cl)O1` (stereo not drawn) [Propiconazole], the Density in data set [1] is 1.39^a g/mL. As to `COC(=O)N(OC)c1ccccc1COc1ccn(-c2ccc(Cl)cc2)n1` [Pyraclostrobin], the Density in data set [1] is listed as 1.34^a g/mL. In the case of `CC(c1ccc(C(F)(F)F)nc1)S(C)(=O)=NC#N` (stereo not drawn) [Sulfoxaflor], the Density in data set [1] was 1.34^a g/mL. On to `CN1COCN(Cc2cnc(Cl)s2)/C1=N\[N+](=O)[O-]` [Thiamethoxam], for which the Density in data set [1] is 1.76^a g/mL.

Regarding Abamectin, the Density in data set [1] is recorded as 1.28^a g/mL. For the same molecule, in data set [2], the “Solubility in Water” value is 36.4^a mg/L. Regarding Spinetoram, the Density in data set [1] is 1.18^a g/mL. In addition, the “Solubility in Water” value in data set [2] is given as 162^a mg/L. For Spinosad, the Density in data set [1] is given as 1.20^a g/mL. Further, the “Solubility in Water” value in data set [2] is listed as 295^a mg/L.
